Test results reported in patent publication US4157439A, “Novel nitrosourea derivatives” (priority 1976, dated 1979).
Where two headings read alike, the source gives them in different places.

Columns and labels:
Leukemia L 1210 = assay: Anti-leukemic activity on Leukemia L 1210 in mice (survival, percentage increase in life-span); type: in vivo, male BDF1 mice; conditions: for Survival days (mean): untreated control 8.0 days; for Number of survivors (after 60 days): survivors/animals after 60 days
Description: The anti-leukemic activity of some typical nitrosourea derivatives of the formula (I) according to this invention was tested on Leukemia L 1210 in mice, details of which are given below. By way of comparison, Streptozotocin was tested in the same way.
Male BDF1 mice, aging about 6-weeks old and weighing 22±1 g were used in groups of 5 animals each for the tests.
Each animal was inoculated with 10^6 cells of L 1210 intraperitoneally,and the test compound in the form as shown below was administered intraperitoneally from the 24th hour after inoculation once a day for 3 consecutive days. The anti-leukemic activity was assessed by comparing the mean survival days of the treated mice to that of the untreated control, i.e. percentage increase in life-span (ILS) which was calculated as follows:
Percentage increase in life-span (ILS)=(T-C/C)×100
T: The mean survival days of the treated animals
C: The mean survival days of the untreated animals
The compounds No. 1 and No. 3 were used in the form of an aqueous solution in distilled water and the compound No. 2 in the form of an aqueous suspension containing 1% CMC.

leukemia and tumors = conditions: background statement on earlier compounds; cited from earlier work
[1] = cited from earlier work
[2] = background statement on earlier compounds; cited from earlier work
[3] = Acute toxicity in the intraperitoneal administration to BDF1 mice; conditions: mouse, in vivo, ip
Text: It will be appreciated clearly from the tests results of Table 1 that the novel nitrosourea derivatives according to this invention gave a significant increase in life-span in therapeutic treatment of the leukemia in comparison with streptozotocin as a known anti-leukemic nitrosourea. The novel nitrosourea derivatives according to this invention are further characterized by their low toxicity, thus satisfying their practical application for treating leukemia and tumor diseases. For example, acute toxicity in the intraperitoneal administration to BDF1 mice of typical nitrosourea derivatives according to this invention is shown below: […]

[4] = background statement on earlier compounds
[5] = dose 1 mg/kg i.p. once a day for 3 days, 60 days observation
[6] = dose 2 mg/kg i.p. once a day for 3 days, 60 days observation
[7] = dose 4 mg/kg i.p. once a day for 3 days, 60 days observation
[8] = dose 4 mg/kg i.p. once a day for 3 days
[9] = dose 8 mg/kg i.p. once a day for 3 days, 60 days observation
[10] = dose 8 mg/kg i.p. once a day for 3 days

SMILES	activity against the leukemia and tumors (leukemia and tumors)	ILS (percentage increase in life-span) (Leukemia L 1210; [7])	Survival days (mean) (Leukemia L 1210; [7])	Number of survivors (after 60 days) (Leukemia L 1210; [8])	ILS (percentage increase in life-span) (Leukemia L 1210; [9])	Survival days (mean) (Leukemia L 1210; [9])	Number of survivors (after 60 days) (Leukemia L 1210; [10])	LD50 [3]	other results
CN(N=O)C(=O)N[C@H]1C(O)O[C@H](CO)[C@@H](O)[C@@H]1O (stereo partly drawn) [compound 3, N-(N'-methyl-N'-nitroso-carbamoyl)-D-glucosamine, reference compound]	insufficient activity against the leukemia and tumors								Survival days (mean) (Leukemia L 1210; dose 50 mg/kg i.p. once a day for 3 days, 60 days observation): 12.1 days; Number of survivors (after 60 days) (Leukemia L 1210; dose 50 mg/kg i.p. once a day for 3 days): 0/5; Survival days (mean) (Leukemia L 1210; dose 100 mg/kg i.p. once a day for 3 days, 60 days observation): 10.6 days; Number of survivors (after 60 days) (Leukemia L 1210; dose 100 mg/kg i.p. once a day for 3 days): 0/5; ILS (percentage increase in life-span) (Leukemia L 1210; ip, 50 mg/kg): 51.3%; ILS (percentage increase in life-span) (Leukemia L 1210; ip, 100 mg/kg): 32.5%; side effect ([1]; in vivo): undesirable side effect
O=NN(CCCl)C(=O)N[C@@H]1O[C@H](CO)[C@@H](O)[C@H](O)[C@H]1O [1-(2-chloroethyl)-3-(β-D-glucopyranosyl)-1-nitrosourea]	remarkably high inhibitory activity against a variety of leukemia and tumors								hygroscopicity [2]: somewhat hygroscopic; side effect [1, 4]: low side effect; toxicity [1, 4]: low toxicity
CC(=O)N[C@@H]1[C@@H](O)[C@H](O)[C@@H](CO)O[C@H]1NC(=O)N(CCCl)N=O [compound 2, 1-(2-Chloroethyl)-3-(2-acetamido-2-deoxy-β-D-glucopyranosyl)-1-nitrosourea]		95.0%	15.6 days	0/5	< 495.0%	< 47.6 days	3/5	20 mg/kg	ILS (percentage increase in life-span) (Leukemia L 1210; [5]): 41.3%; Survival days (mean) (Leukemia L 1210; [5]): 11.3 days; Number of survivors (after 60 days) (Leukemia L 1210; dose 1 mg/kg i.p. once a day for 3 days): 0/5; ILS (percentage increase in life-span) (Leukemia L 1210; [6]): 55.0%; Survival days (mean) (Leukemia L 1210; [6]): 12.4 days; Number of survivors (after 60 days) (Leukemia L 1210; dose 2 mg/kg i.p. once a day for 3 days): 0/5
CC(=O)N[C@@H]1[C@@H](OC(C)=O)[C@H](OC(C)=O)[C@@H](COC(C)=O)O[C@H]1NC(=O)N(CCCl)N=O [compound 1, 1-(2-Chloroethyl)-3-(2-acetamido-3,4,6-tri-O-acetyl-2-deoxy-β-D-glucopyranosyl)-1-nitrosourea]		78.8%	14.3 days	0/5	105.0%	16.4 days	0/5	25 mg/kg	
